Results from patent US4127675A, “4-(Alkylamino-2-hydroxypropoxy)-indenes and method of use” (Yamanouchi Pharmaceutical Co., Ltd., priority 1968, dated 1978).
Where two headings read alike, the source gives them in different places.

Legend:
adrenergic β-receptor [1] = molecular target: T1, adrenergic β-receptor (Rattus norvegicus, UniProt P18090); test: Blockade of isoproterenol-induced tachycardia in reserpinized, vagotomized rats (Experiment 3); type: in vivo; conditions: for Res: Response (percent increase of heart rate induced by 0.1 μg/kg l-isoproterenol): i.v., cumulative, Control = 100; for ED50: rat, iv, read-out: ED50 (dose producing 50% blockade of the positive chronotropic control response to l-isoproterenol)
T1 construct: studied in reserpinized, vagotomized rats; from tissue; host or cells: heart in the living, anaesthetized rat (in vivo heart rate)
Procedure: The effects of certain compounds on isoproterenol-induced tachycardia as well as on resting heart rate were studied in reserpinized, vagotomized rats. The rat was anaesthetized with pentobarbital 18 hours after treatment with reserpine (8 mg./kg., i.p.) and vagotomized bilaterally in the neck. Heart rate was recorded by a cardiotacho-meter (RT-2, Nihonkoden). […] Ten minutes after each dose of the compound an intravenous injection of l-isoproterenol (0.1 μg./kg.) was administered and the increase in heart rate was recorded. The dose producing 50% blockade of the positive chronotropic control response to l-isoproterenol (ED-50) was estimated in each experiment from curves obtained by plotting inhibition percentage against log cumulative dose.

resting heart rate = test: Effect on resting (basic) heart rate in reserpinized, vagotomized rats (Experiment 3); type: in vivo, rat; conditions: i.v., cumulative
Procedure: The effects of certain compounds on isoproterenol-induced tachycardia as well as on resting heart rate were studied in reserpinized, vagotomized rats. The rat was anaesthetized with pentobarbital 18 hours after treatment with reserpine (8 mg./kg., i.p.) and vagotomized bilaterally in the neck. Heart rate was recorded by a cardiotacho-meter (RT-2, Nihonkoden). After the control response to l-isoproterenol (0.1 μg./kg., i.v.) was obtained, each compound tested was injected intravenously in such doses that the cumulative dose increased four-fold: 0.01-0.04-0.16-0.64-2.56 mg./kg., at 20 minute intervals. Ten minutes after each dose of the compound an intravenous injection of l-isoproterenol (0.1 μg./kg.) was administered and the increase in heart rate was recorded. The dose producing 50% blockade of the positive chronotropic control response to l-isoproterenol (ED-50) was estimated in each experiment from curves obtained by plotting inhibition percentage against log cumulative dose.
abbreviations; ^a) BHR : Basic heart rate (the heart rate just before
administration of l-isoproterenol, unit = beat per minute)

[2] = Acute intravenous toxicity in white mice; conditions: mouse, in vivo, injected intravenously
[3] = test system: heart devoid of autonomous nervous control; test: Direct effect on heart rate of a heart devoid of autonomous nervous control, reserpinized, adrenalectomized, vagotomized rats (Experiment 2); type: in vivo, Wistar rats; conditions: for Change of heart rate (%): + increase, - decrease
Procedure: Experiment 2 […] Both adrenal glands were removed and bilateral vagotomy in the neck was performed. […] (RM 100). In Table 2, the symbol + represents an increase in heart rate, while the symbol - represents a decrease in heart rate. The standard error is shown in parenthesis.

adrenergic β-receptor [4] = molecular target: T2, adrenergic β-receptor (Cavia porcellus, UniProt H0W3H1); test: Antagonism of l-isoproterenol-induced increase of atrial contraction, isolated guinea pig atria (Experiment 1); set-up: species or system male Hartley guinea pig; conditions: l-isoproterenol 5 × 10^-8 g./ml., 10 minutes previously
T2 construct: The atria obtained from a male Hartley guinea pig; from tissue; host or cells: isolated atria of male Hartley guinea pig
Procedure: The atria obtained from a male Hartley guinea pig weighing 300-500 g. were trimmed and placed in chambers containing Tyrode solution oxygenated with 95% oxygen and 5% carbon dioxide and maintained at 30° C.
Contractile force was recorded by an isometric lever connected to a strain gauge tension transducer. Antagonistic activity of the tested drugs on the 1-isoproterenol-induced increase of the atrial contraction was investigated.
The first control response was measured adding 1-isoproterenol to the bath fluid to a final concentration of 5 × 10^-8 g./ml. Then the preparation was washed and the same procedure was repeated after application of the drugs to be tested, i.e. 4-(3-isopropylamino-2-hydroxypropoxy)indene and 4-(3-isopropylamino-2-hydroxypropoxy)indane (final concentrations of 8 × 10^-9 g./ml. and 5 × 10^-8 g./ml.), 10 minutes previously.

[5] = cumulative dose, l-isoproterenol 0.1 μg./kg. i.v., ± standard error
[6] = 0.01 mg./kg. i.v., 1 minute after
[7] = 0.01 mg./kg. i.v., 5 minutes after
[8] = 0.01 mg./kg. i.v., 15 minutes after
[9] = 0.01 mg./kg. i.v., 30 minutes after
[10] = 0.05 mg./kg. i.v., 1 minute after
[11] = 0.05 mg./kg. i.v., 5 minutes after
[12] = 0.05 mg./kg. i.v., 15 minutes after
[13] = 0.05 mg./kg. i.v., 30 minutes after
[14] = 0.10 mg./kg. i.v., 1 minute after
[15] = 0.10 mg./kg. i.v., 5 minutes after
[16] = 0.10 mg./kg. i.v., 15 minutes after
[17] = 0.10 mg./kg. i.v., 30 minutes after
[18] = final concentration 5 × 10^-8 g./ml.
[19] = final concentration 8 × 10^-9 g./ml.

T2 sequence (H0W3H1 1-470): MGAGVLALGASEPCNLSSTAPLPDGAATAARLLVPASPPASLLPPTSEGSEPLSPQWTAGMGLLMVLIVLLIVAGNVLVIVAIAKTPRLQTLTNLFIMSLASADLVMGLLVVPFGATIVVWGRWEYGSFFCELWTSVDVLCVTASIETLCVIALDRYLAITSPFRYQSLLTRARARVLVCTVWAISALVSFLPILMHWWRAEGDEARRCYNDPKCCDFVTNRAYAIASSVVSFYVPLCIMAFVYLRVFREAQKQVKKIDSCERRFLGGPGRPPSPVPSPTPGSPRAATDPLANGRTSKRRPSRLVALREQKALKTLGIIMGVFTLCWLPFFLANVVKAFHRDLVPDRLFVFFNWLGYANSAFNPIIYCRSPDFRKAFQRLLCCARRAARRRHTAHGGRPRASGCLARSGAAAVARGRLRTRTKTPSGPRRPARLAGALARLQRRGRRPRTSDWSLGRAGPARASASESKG
T1 sequence (P18090 whole entry): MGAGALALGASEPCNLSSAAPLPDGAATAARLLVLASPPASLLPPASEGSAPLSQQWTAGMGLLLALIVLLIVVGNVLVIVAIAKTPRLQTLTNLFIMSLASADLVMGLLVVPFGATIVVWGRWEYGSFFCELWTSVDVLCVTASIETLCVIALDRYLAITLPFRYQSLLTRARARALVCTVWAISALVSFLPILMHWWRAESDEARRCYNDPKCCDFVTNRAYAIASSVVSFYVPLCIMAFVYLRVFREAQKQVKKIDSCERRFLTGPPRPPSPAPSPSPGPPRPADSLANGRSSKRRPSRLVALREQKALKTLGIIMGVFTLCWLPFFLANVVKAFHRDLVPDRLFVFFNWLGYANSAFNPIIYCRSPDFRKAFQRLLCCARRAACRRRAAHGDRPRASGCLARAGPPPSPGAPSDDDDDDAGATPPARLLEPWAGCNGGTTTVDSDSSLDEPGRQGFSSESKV

Structure (SMILES) | Res: Response (percent increase of heart rate induced by 0.1 μg/kg l-isoproterenol) (adrenergic β-receptor [1]; 0.01 mg/kg) | Res: Response (percent increase of heart rate induced by 0.1 μg/kg l-isoproterenol) (adrenergic β-receptor [1]; 0.04 mg/kg) | Res: Response (percent increase of heart rate induced by 0.1 μg/kg l-isoproterenol) (adrenergic β-receptor [1]; 0.16 mg/kg) | Res: Response (percent increase of heart rate induced by 0.1 μg/kg l-isoproterenol) (adrenergic β-receptor [1]; 0.64 mg/kg) | ED50 (adrenergic β-receptor [1]; [5]) | BHR: Basic heart rate (just before administration of l-isoproterenol) (resting heart rate; 0.01 mg/kg) | BHR: Basic heart rate (just before administration of l-isoproterenol) (resting heart rate; 0.04 mg/kg) | BHR: Basic heart rate (just before administration of l-isoproterenol) (resting heart rate; 0.16 mg/kg) | BHR: Basic heart rate (just before administration of l-isoproterenol) (resting heart rate; 0.64 mg/kg) | Change of heart rate (%) [3, 6] | Change of heart rate (%) [3, 7] | Change of heart rate (%) [3, 8] | Change of heart rate (%) [3, 9] | Change of heart rate (%) [3, 10] | Change of heart rate (%) [3, 11] | Change of heart rate (%) [3, 12] | Change of heart rate (%) [3, 13] | Change of heart rate (%) [3, 14] | Change of heart rate (%) [3, 15] | Change of heart rate (%) [3, 16] | also measured
CCC(C)NCC(O)COc1cccc2c1C=CC2 (stereo not drawn) [4-(3-sec-butylamino-2-hydroxypropoxy)indene] | 81±4% | 65±1% | 40±5% | 17±3% | 0.088 ± 0.011 mg/kg | 200±13 beat per minute | 218±13 beat per minute | 225±14 beat per minute | 236±16 beat per minute | – | – | – | – | – | – | – | – | – | – | – | Res: Response (percent increase of heart rate induced by 0.1 μg/kg l-isoproterenol) (adrenergic β-receptor [1]; 2.56 mg/kg): 6±1%; BHR: Basic heart rate (just before administration of l-isoproterenol) (resting heart rate; 2.56 mg/kg): 228±23 beat per minute
C=CCc1ccccc1OCC(O)CNC(C)C (stereo not drawn) [alprenolol (Aptin), alprenolol, reference compound] | 65±3% | 44±3% | 17±3% | 3±1% | – | 233±12 beat per minute | 247±11 beat per minute | 261±7 beat per minute | 262±4 beat per minute | – | – | – | – | – | – | – | – | – | – | – | ED50 (adrenergic β-receptor [1]): 0.03 ± 0.003 mg/kg
CC(C)NCC(O)COc1cccc2c1C=CC2 (racemic) [4-(3-isopropylamino-2-hydroxypropoxy)indene] | 74±3% | 50±2% | 23±2% | 5±1% | 0.039 ± 0.002 mg/kg | 235±12 beat per minute | 246±13 beat per minute | 245±14 beat per minute | 245±12 beat per minute | +2.4% | +3.8% | +3.2% | +1.7% | +5.6% | +8.4% | +8.7% | +5.2% | +1.5% | +4.1% | +3.5% | LD50 [2]: 25 mg/kg; Change of heart rate (%) [3, 17]: +4.0%; Inhibition rate (%) (adrenergic β-receptor [4]; [18]): 81.5%; Inhibition rate (%) (adrenergic β-receptor [4]; [19]): 30.7%
CC(C)NCC(O)COc1cccc2c1CCC2 (stereo not drawn) [4-(3-isopropylamino-2-hydroxypropoxy)indane] | – | 54±5% | 33±14% | 12±1% | 0.065 ± 0.013 mg/kg | – | 245±15 beat per minute | 236±14 beat per minute | 238±17 beat per minute | -0.9% | +0.3% | -1.9% | -1.7% | -2.1% | -2.0% | -2.0% | -4.6% | -5.9% | -8.7% | -8.7% | Change of heart rate (%) [3, 17]: -5.4%; effect on the cardiac function (in words) ([3]; Experiment 2): deleterious effects on the cardiac function; Inhibition rate (%) (adrenergic β-receptor [4]; [18]): 88.4%; Inhibition rate (%) (adrenergic β-receptor [4]; [19]): 30.4%
